{"source": "ChEMBL document CHEMBL3351471", "about": "“Antileishmanial metabolites from Geosmithia langdonii” (J Nat Prod, 2014)"}
{"tested_on": "Leishmania donovani", "experiment": "Antileishmanial activity against promastigote forms of Leishmania donovani by alamar blue assay", "assay_type": "functional, organism-based", "units": {"IC50": "µM", "IC90": "µM"}}
{"smiles": "CC1=C[C@H](O)[C@H]2O[C@H]2C1=O", "IC50": 6.9, "IC90": 10.8}
{"smiles": "Cc1cccc(O)c1", "note": "[METACRESOL]", "IC50": 9.2, "IC90": 12.4}
{"smiles": "CC1=C[C@@H](O)[C@H](O)CC1=O", "note": "(single isomer, unassigned)", "IC50": 47.3, "IC90": 61}
{"smiles": "N=C(N)c1ccc(OCCCCCOc2ccc(C(=N)N)cc2)cc1", "note": "[PENTAMIDINE]", "IC50": 3.2, "IC90": 5.9}
{"smiles": "OCc1cc(O)cc(O)c1Cc1ccc(O)c(O)c1", "IC50": 13, "IC90": 22}
{"smiles": "C[C@@H]1[C@H](O)[C@@H](C)/C=C/C=C/C=C/C=C/C=C/C=C/C=C/[C@H](O[C@@H]2O[C@H](C)[C@@H](O)[C@H](N)[C@@H]2O)C[C@@H]2O[C@](O)(C[C@@H](O)C[C@@H](O)[C@H](O)CC[C@@H](O)C[C@@H](O)CC(=O)O[C@H]1C)C[C@H](O)[C@H]2C(=O)O", "note": "[AMPHOTERICIN B]", "IC90": 0.4}
{"smiles": "OCc1cccc(O)c1", "IC50": 34, "IC90": 52.3}
{"smiles": "OCc1cc(O)ccc1O", "note": "[GENTISYL ALCOHOL]", "IC50": 8.5, "IC90": 10.4}
{"smiles": "O=Cc1cc(O)ccc1O", "IC50": 3.3, "IC90": 6.1}
{"tested_on": "Staphylococcus aureus", "experiment": "Antimicrobial activity against methicillin-resistant Staphylococcus aureus ATCC 33591", "assay_type": "functional, organism-based", "units": {"IC50": "µM"}}
{"smiles": "Cc1ccc(O)c(O)c1", "IC50": 72.9}
{"tested_on": "Staphylococcus aureus", "experiment": "Antimicrobial activity against Staphylococcus aureus ATCC 29213", "assay_type": "functional, organism-based", "units": {"IC50": "µM"}}
{"smiles": "Cc1ccc(O)c(O)c1", "IC50": 148}
